Series [1] is described as follows: PAMPA-BBB assay. The note with it: incubation 4 hr, pH 7.4, 25° C., U.V, read-out: Permeability Pe. The format is in vitro ADME. The procedure: The parallel artificial membrane permeability assay (PAMPA) was performed to determine the brain barrier blood (BBB) permeability. […] For the Blank measurement, the donor buffer was dispensed into a high sensitivity UV plate at 150 μl per well and the UV values were measured (Blank sample). For the initial value measurement, the mixture in the deep well plate was dispensed 150 μl per well into the UV plate and the UV values were measured (initial sample). Next, 200 μl of the test compound mixture was dispensed onto the donor plate of the PAMPA sandwich, and the acceptor plate of the PAMPA sandwich was inverted and the membrane was coated with 5 μl of BBB-lipid solution. Then, 200 μl of acceptor sink buffer was added to each well of the acceptor plate, and the acceptor plate and donor plate were combined and incubated at 25° C. for 4 hours. […] Finally, the permeability (Pe(10^−6 cm/sec)) was analyzed using the PAMPA explore program. The experiment was performed in three replicates. The permeability of the material was analyzed by UV measurement and LC-MS/MS, the specific conditions of which are described below.
(The PAMPA barrier holds no transporters, so it reflects passive diffusion.)

For series [2], the system named is BV2 cells. Nature of the series: NOX inhibition assay in BV2 cells (LPS-induced reactive oxygen species, lucigenin). The note with it: BV2 cells pre-treated 30 minutes, LPS 10 ng/ml, 0-10000 nM. The format is cell-based, mouse. The procedure:
BV2 cells, a mouse microglial cell line, were washed with Hank's balanced salt solution (HBSS) and stabilized by incubation at 37° C. in HBSS for 30 minutes. Then, the compounds (compound of Example 1 or compound of Example 2) were treated at various concentrations (0 nM, 1 nM, 10 nM, 100 nM, 1000 nM, and 10000 nM). After 30 minutes, 10 ng/ml of lipopolysaccharide (LPS) and 200 μM of lucigenin were added to the cells. Lucigenin chemiluminescence induced by active oxygen (reactive oxygen species) was detected at 10-second intervals for 15 minutes using a luminometer (GLOMA, Promega).

In series [3] the test system is U87. Kind of series: Mouse model xenografted with brain tumor glioblastoma U87. The format is in vivo, mice. On the procedure:
To confirm the therapeutic effect on brain tumor glioblastoma, U87 (5×10^4), a human brain tumor cell line, was xenografted into the brains of mice to establish a brain tumor model, followed by oral administration of the drugs.
Different experimental groups were evaluated for each compound.
First, with respect to the compound of Example 1, the experimental groups were divided into Vehicle (n=3) and the compound of Example 1, 50 mg/kg (n=3) and the administered with the drug orally 5 times a week 20 days after U87 xenografting.
With respect to the compound of Example 2, the experimental groups were divided into Vehicle (n=9), TMZ 5 mg/kg (Temozolomide, n=10, 2 times per week), the compound of Example 2, 50 mg/kg (n=8, 5 times per week), and combination (TMZ+the compound of Example 2, n=7), and began receiving the drug 20 days after U87 xenografting.

Series [4] is described as follows: Cytotoxicity experiment (MTT assay) HT-22. The format is cell-based. The note with it: mouse, HT-22 cells. The procedure:
HepG2 (human hepatocellular carcinoma) and HT-22 (mouse hippocampal neuronal cell line) were seeded at densities of 1×10^5 or 1.5×10^4 per well in a 48-well plate and incubated for at least 12 hours, then treated with compounds of Example 1 and Example 2 at various concentrations (0 nM, 1 nM, 10 nM, 100 nM, 1000 nM, 10000 nM, 100000 nM, and 1000000 nM) and incubated for 24 hours. MTT solution (Thiazolyl Blue Tetrazolium Bromide 2 mg/ml) was subsequently added at 30 μl per well. After incubation for 4 hours, the culture medium containing the MTT solution was removed and 300 μl of DMSO was added to dissolve the MTT-formazan. 100 μl of the solution in each well was transferred to a 96-well plate and the absorbance was measured at 570 nm. IC50 values were calculated with Graph-Pad Prism 5 (GraphPad Software). The cell viability of the groups treated with the compounds of Example 1 and Example 2 at each concentration was determined relative to control group in which HepG2 cells were treated with DMSO alone, in at least five replicates.
Background: Tetrazolium assays rely on reduction of a dye to a coloured formazan, in cell work by metabolically active cells.

The test system of series [5] is MPTP-induced Parkinson's disease. Kind of series: MPTP-induced Parkinson's disease mouse model. The class given is in vivo, mice. The following applies: for MPTP-induced increase in number of microglia (Iba1+ cells) in the substantia nigra and striatum / density of Th+ fibers in the striatum / number of dopaminergic neurons (Th+ cells) in the substantia nigra: 30 mg/kg oral for 8 days; for density of Th+ fibers in the striatum / number of dopaminergic neurons (Th+ cells) in the substantia nigra / pole test T-total / pole test T-turn: compared to the vehicle-treated group; for pole test T-total / pole test T-turn: Day 6 after MPTP, 30 mg/kg oral. On the procedure: To evaluate the effect of compounds of Example 1 and Example 2 on MPTP (1-methyl-4-phenyl-1,2,3,6-tetrahydropyridine hydrochloride; Sigma-Aldrich)-induced Parkinson's disease, C57BL/6 male mice (9 weeks old) were randomly divided into three groups. • saline+vehicle • MPTP+vehicle • MPTP+compound of Example 1 or […] (30 mg/kg)
To induce Parkinson's disease, mice were intraperitoneally injected with MPTP (25 mg/kg) four times at 2-hour intervals, while control mice were treated with an equal volume of saline. The compounds of Example 1 or Example 2 were dissolved in a solvent consisting of 10% DMAC (dimethyl acetamide, Sigma-Aldrich), 10% Tween 80 (Sigma-Aldrich) and 80% saline (JW Pharmaceuticals). Mice were orally administered with 30 mg/kg of the compound of Example 1 or Example 2 starting 1 day prior to MPTP injection for 8 days.
Seven days after MPTP administration (one day after the last administration of the compound of Example 1 or Example 2), experimental animals were sacrificed by perfusion with saline (JW Pharmaceuticals) followed by 10% formalin (Sigma-Aldrich), and brain tissues were obtained. The tissues were cut into 30 μm thick slices using a cryostat (Leica) and stored in an anti-freezing solution (30% sucrose, 1% polyvinylpyrrolidone, and 30% ethylene glycol in 1×PBS) at −20° C.
Anti-tyrosine hydroxylase antibody (1:2000-4000, ABCAOM) was used to detect dopaminergic neurons and anti-Iba1 antibody (1:1000, Wako) was used to measure microglia. Biotinylated goat anti-rabbit antibody (VECTOR, BA-1000) was used as a secondary antibody and ABC solution (VECTOR, BA-1000) was used. The immunoreactive sections were then incubated with 3-3′ diaminobenzidine (DAB, Dako) to change the color to brown.
For the substantia nigra, six coronal sections, one every 150 μm, between −2.80 mm and −3.80 mm bregma were used, and for the striatum, three coronal sections between +0.98 mm and +0.50 mm bregma were collected. The coronal sections were stained with anti-tyrosine hydroxylase antibody or anti-Iba1 antibody and then analyzed by counting the number of stained cells or using ImagePro plus 7.0 software.
The mice were moved to a home cage where they were placed head up in the top of a 60 cm vertical pole with a diameter of 1 cm, and were then allowed to descend themselves and stay for about 15 seconds in the home cage.
The above procedure was repeated three times, all of which were videotaped, and the time for the mouse's head to turn completely downward (T-turn) and total time to descend to the floor (T-total) were analyzed.

Setting [6] is: Example 1 study: 50 mg/kg orally 5 times a week.

Structures are written as SMILES.

By IC50 is commonly meant the concentration that inhibits the measured activity by half. High values mean weaker potency, low ones greater potency. In the case of `O=C(Nc1nnc(-c2cccc(Cl)c2)o1)c1cc(F)cc(C(F)(F)F)c1` [Example 1, N-(5-(3-chlorophenyl)-1,3,4-oxadiazol-2-yl)-3-fluoro-5-(trifluoromethyl)benzamide], the Papp at 4 h, 50 μM in series [1] (50 μM) is above 0.4 ×10⁻⁶ cm/s. Moreover, in series [2], the “production of reactive oxygen species” value is on record as “significantly reduced”. In series [3] (setting [6]), the “brain tumor growth (MRI)” value is listed as “inhibition of brain tumor growth” and the “extension of median survival compared to the vehicle group” value was 17 days. Also, the median survival in series [3] (Example 1 study: 50 mg/kg orally 5 times a week from 20 days after U87 xenografting, vehicle 31 days) was determined as 48 days. Moreover, the IC50 at 24 h in series [4] was 2 µM. In series [5], the “MPTP-induced increase in number of microglia (Iba1+ cells) in the substantia nigra and striatum” value was “effectively reduced”; the “density of Th+ fibers in the striatum” value is on record as “higher”; the “number of dopaminergic neurons (Th+ cells) in the substantia nigra” value is “higher”; the “pole test T-total” value is “significant decrease”. Moreover, in series [5], the “pole test T-turn” value is given as “decrease”.

In the case of `O=C(Nc1nnc(-c2ccccc2)o1)c1ccc(F)c(C(F)(F)F)c1` [Example 2, 4-fluoro-N-(5-phenyl-1,3,4-oxadiazol-2-yl)-3-(trifluoromethyl)benzamide], the Papp at 4 h, 10 μM in series [1] (10 μM) is above 0.4 ×10⁻⁶ cm/s. In addition, the “production of reactive oxygen species” value in series [2] is “significantly reduced”. Further, the “tumor growth rate (MRI)” value in series [3] (Example 2 study: Example 2 50 mg/kg 5 times per week, TMZ 5 mg/kg 2 times per week) is recorded as “inhibited the tumor growth rate”. The median survival time in series [3] (Example 2 study: Example 2 50 mg/kg 5 times per week, TMZ 5 mg/kg 2 times per week, from 20 days after xenografting, vehicle 42 days) worked out at 46 days. Besides, in series [4], the IC50 at 24 h came out at 5.5 µM. Also, in series [5], the “MPTP-induced increase in number of microglia (Iba1+ cells) in the substantia nigra and striatum” value is on record as “effectively reduced”; the “density of Th+ fibers in the striatum” value is “higher”; the “number of dopaminergic neurons (Th+ cells) in the substantia nigra” value was “higher”; the “pole test T-total” value is given as “significant decrease”. In addition, the “pole test T-turn” value in series [5] was “decrease”.
